Measured values taken from ChEMBL document CHEMBL3352787, “Lipid-lowering effects of farnesylquinone and related analogues from the marine-derived Streptomyces nitrosporeus” (Bioorg Med Chem Lett, 2014).
Activity calls are given as the source filed them. No cut-off for these calls is given here.

What was measured:
HepG2 [1] = experiment: Lipid-lowering effect in human HepG2 cells assessed as reduction in oleic acid-induced lipid accumulation at 1 uM after 6 hrs by oil-red O staining based spectrophotometry; assay type: functional, cell-based
HepG2 [2] = experiment: Lipid-lowering effect in human HepG2 cells assessed as reduction in oleic acid-induced total cholesterol accumulation at 10 uM after 24 hrs by oil-red O staining based spectrophotometry; assay type: functional, cell-based
HepG2 [3] = experiment: Lipid-lowering effect in human HepG2 cells assessed as reduction in oleic acid-induced triglyceride accumulation at 10 uM after 24 hrs by oil-red O staining based spectrophotometry; assay type: functional, cell-based
HepG2 [4] = experiment: Effect on FAS protein expression in human HepG2 cells at 1 to 10 uM by Western blotting method; assay type: functional, cell-based
HepG2 [5] = experiment: Increase in PPARalpha gene expression in human HepG2 cells at 1 uM by quantitative real time PCR method; assay type: functional, cell-based
HepG2 [6] = experiment: Lipid-lowering effect in human HepG2 cells assessed as reduction in oleic acid-induced total cholesterol accumulation at 1 and 10 uM after 24 hrs by oil-red O staining based spectrophotometry; assay type: functional, cell-based
HepG2 [7] = experiment: Increase in MCD1 gene expression in human HepG2 cells at 1 uM by quantitative real time PCR method; assay type: functional, cell-based
HepG2 [8] = experiment: Inhibition of ACC gene expression in human HepG2 cells at 1 uM by quantitative real time PCR method; assay type: functional, cell-based
HepG2 [9] = experiment: Increase in ACOX1 gene expression in human HepG2 cells at 1 uM by quantitative real time PCR method; assay type: functional, cell-based
HepG2 [10] = experiment: Increase in CYP7A1 gene expression in human HepG2 cells at 1 uM by quantitative real time PCR method; assay type: functional, cell-based
HepG2 [11] = experiment: Lipid-lowering effect in human HepG2 cells assessed as reduction in oleic acid-induced triglyceride accumulation at 1 and 10 uM after 24 hrs by oil-red O staining based spectrophotometry; assay type: functional, cell-based
HepG2 [12] = experiment: Lipid-lowering effect in human HepG2 cells assessed as reduction in oleic acid-induced triglyceride accumulation at 10 uM in presence of 10 uM PPARalpha antagonist MK886 by oil-red O staining based spectrophotometry; assay type: functional, cell-based
HepG2 [13] = experiment: Lipid-lowering effect in human HepG2 cells assessed as reduction in oleic acid-induced total cholesterol accumulation at 10 uM in presence of 10 uM PPARalpha antagonist MK886 by oil-red O staining based spectrophotometry; assay type: functional, cell-based
HepG2 [14] = experiment: Increase in CPT1 gene expression in human HepG2 cells at 1 uM by quantitative real time PCR method; assay type: functional, cell-based
HepG2 [15] = experiment: Increase in PDK4 gene expression in human HepG2 cells at 1 uM by quantitative real time PCR method; assay type: functional, cell-based
HepG2 [16] = experiment: Inhibition of HMGCR gene expression in human HepG2 cells at 1 uM by quantitative real time PCR method; assay type: functional, cell-based
HepG2 [17] = experiment: Lipid-lowering effect in human HepG2 cells assessed as reduction in oleic acid-induced neutral lipid accumulation at 1 and 10 uM after 24 hrs by oil-red O staining based spectrophotometry; assay type: functional, cell-based
HepG2 [18] = experiment: Inhibition of FAS gene expression in human HepG2 cells at 1 uM by quantitative real time PCR method; assay type: functional, cell-based
HepG2 [19] = experiment: Increase in CPT1 protein expression in human HepG2 cells at 1 to 10 uM by Western blotting method; assay type: functional, cell-based
HepG2 [20] = experiment: Increase in PPARalpha protein expression in human HepG2 cells at 1 to 10 uM by Western blotting method; assay type: functional, cell-based
HepG2 [21] = experiment: Increase in PGC-1alpha protein expression in human HepG2 cells at 1 to 10 uM by Western blotting method; assay type: functional, cell-based
[22] = target: T1, Peroxisome proliferator-activated receptor alpha (Homo sapiens) (UniProt Q07869); experiment: Activation of PPARalpha transactivation in human HepG2 cells assessed as increase in transcriptional activity at 0.1 to 10 uM by luciferase reporter gene assay; assay type: cell-based
T1 sequence (whole entry): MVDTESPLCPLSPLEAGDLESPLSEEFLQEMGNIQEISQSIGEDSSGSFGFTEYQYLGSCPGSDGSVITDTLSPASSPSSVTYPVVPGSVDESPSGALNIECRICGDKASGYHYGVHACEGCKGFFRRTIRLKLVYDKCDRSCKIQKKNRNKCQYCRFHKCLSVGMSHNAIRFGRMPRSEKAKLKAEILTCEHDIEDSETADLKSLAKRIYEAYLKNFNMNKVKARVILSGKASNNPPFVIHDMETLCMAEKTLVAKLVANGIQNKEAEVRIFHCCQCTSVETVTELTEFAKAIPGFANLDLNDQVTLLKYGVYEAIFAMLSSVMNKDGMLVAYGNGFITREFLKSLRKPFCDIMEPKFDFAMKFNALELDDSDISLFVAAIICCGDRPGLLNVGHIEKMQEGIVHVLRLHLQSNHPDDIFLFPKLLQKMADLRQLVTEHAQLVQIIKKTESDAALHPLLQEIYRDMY

For `O=C(O)CCCCC[C@H](O)c1ccccc1CO`, which inhibition (HepG2 [1]) is on record?
The inhibition was “Active”.

How did the inhibition (HepG2 [1]) turn out when `O=C(O)CC/C=C/c1ccccc1CO` was run?
Its inhibition is “inactive”.

Which inhibition (HepG2 [1]) does the source give for `CC(C)=CCC/C(C)=C/CC/C(C)=C/Cc1cc(O)c(C)cc1O` here?
Its inhibition is “inactive”.

Which inhibition (HepG2 [1]) does the source give for `CC(C)=CCC/C(C)=C/CC/C(C)=C/C[C@@]12O[C@@H]1[C@H](O)C(C)=CC2=O` here?
Its inhibition is “inactive”.

With `O=C(O)CCCC(=O)c1ccccc1CO` as the compound, how does the inhibition (HepG2 [1]) read?
Its inhibition is “inactive”.

For `COC(=O)CC/C=C/c1ccccc1CO`, which inhibition (HepG2 [1]) is on record?
The inhibition was “inactive”.

How did the inhibition (HepG2 [1]) turn out when `O=C(O)CCCCc1ccccc1CO` was run?
Its inhibition is “inactive”.

With `CC[C@H](C)C(=O)O[C@H]1C[C@@H](C)C=C2C=C[C@H](C)[C@H](CC[C@@H]3C[C@@H](O)CC(=O)O3)[C@H]21` as the compound, how does the inhibition (HepG2 [1]) read?
The inhibition was “Active”.

And the inhibition (HepG2 [2])?
Its inhibition is “Active”.

What about the inhibition (HepG2 [3]) of the same compound?
The inhibition was “Active”.

With `O=C(O)/C=C/C=C/c1ccccc1CO` as the compound, how does the inhibition (HepG2 [1]) read?
Its inhibition is “inactive”.

Which inhibition (HepG2 [1]) does the source give for `O=C(O)C[C@H](O)CCc1ccccc1CO` here?
The inhibition was “inactive”.

What does the source list for `CC(C)=CCC/C(C)=C/CC/C(C)=C/CC1=CC(=O)C(C)=CC1=O`?
inhibition (HepG2 [1]): Active; Activity (HepG2 [4]): inactive; Activity (HepG2 [5]): Active; inhibition (HepG2 [6]): Dose-dependent effect; Activity (HepG2 [7]): Active; inhibition (HepG2 [8]): inactive; Activity (HepG2 [9]): Active; Activity (HepG2 [10]): Active; inhibition (HepG2 [11]): Dose-dependent effect; inhibition (HepG2 [12]): inactive; inhibition (HepG2 [13]): inactive; Activity (HepG2 [14]): Active; Activity (HepG2 [15]): Active; inhibition (HepG2 [16]): inactive; inhibition (HepG2 [17]): Dose-dependent effect; inhibition (HepG2 [18]): inactive; Activity (HepG2 [19]): Active; Activity (HepG2 [20]): Active; Activity (HepG2 [21]): Active; Activity [22]: Dose-dependent effect
